Reference: patent US20090076006A1, “HSP90 INHIBITORS CONTAINING A ZINC BINDING MOIETY” (priority 2007, published 2009)

Key:
[1] = test system: HDAC (HeLa nuclear extract); assay: HDAC fluorimetric assay (inhibition of HDAC enzymatic activity); assay type: biochemical; details: HDAC fluorimetric assay kit
Method: (c) An In Vitro Assay which Determines the Ability of a Test Compound to Inhibit HDAC Enzymatic Activity.
HDAC inhibitors were screened using an HDAC fluorimetric assay kit (AK-500, Biomol, Plymouth Meeting, Pa.). Test compounds were dissolved in dimethylsulphoxide (DMSO) to give a 20 mM working stock concentration. Fluorescence was measured on a WALLAC Victor 2 plate reader and reported as relative fluorescence units (RFU). Data were plotted using GraphPad Prism (v4.0a) and IC50's calculated using a sigmoidal dose response curve fitting algorithm. Each assay was setup as follows: Defrosted all kit components and kept on ice until use. Diluted HeLa nuclear extract 1:29 in Assay Buffer (50 mM Tris/Cl, pH 8.0, 137 mM NaCl, 2.7 mM KCl, 1 mM MgCl2). Prepared dilutions of Trichostatin A (TSA, positive control) and tested compounds in assay buffer (5× of final concentration). Diluted Fluor de Lys™ Substrate in assay buffer to 100 uM (50 fold=2× final). Diluted Fluor de Lys™ developer concentrate 20-fold (e.g. 50 μl plus 950 μl Assay Buffer) in cold assay buffer. Second, diluted the 0.2 mM Trichostatin A 100-fold in the 1× Developer (e.g. 10 μl in 1 ml; final Trichostatin A concentration in the 1× Developer=2 μM; final concentration after addition to HDAC/Substrate reaction=1 μM). Added Assay buffer, diluted trichostatin A or test inhibitor to appropriate wells of the microtiter plate. Added diluted HeLa extract or other HDAC sample to all wells except for negative controls. Allowed diluted Fluor de Lys™ Substrate and the samples in the microtiter plate to equilibrate to assay temperature (e.g. 25 or 37° C. Initiated HDAC reactions by adding diluted substrate (25 μl) to each well and mixing thoroughly. Allowed HDAC reactions to proceed for 1 hour and then stopped them by addition of Fluor de Lys™ Developer (50 μl). Incubated plate at room temperature (25° C.) for 10-15 min. Read samples in a microtiter-plate reading fluorimeter capable of excitation at a wavelength in the range 350-380 nm and detection of emitted light in the range 440-460 nm.

HSP90 = target: T1, HSP90 (Homo sapiens, UniProt P07900); assay: HSP90 assay (chaperone luciferase refolding / competition binding fluorescence polarization); details: Table B does not say which of the two described
T1 construct: purchased Assay Design SPP-776F
Method: (a) An In Vitro Assay which Determines the Ability of a Test Compound to Inhibit Hsp90 Chaperone Activity.
The Hsp90 chaperone assay was performed to measure the ability of HSP90 protein to refold the heat-denatured luciferase protein. HSP90 was first incubated with different concentrations of test compounds in denaturation buffer (25 mM Tris, pH7.5, 8 mM MgSO4, 0.01% bovine gamma globulin and 10% glycerol) at room temperature for 30 min. Luciferase protein was added to denaturation mix and incubated at 50° C. for 8 min. The final concentration of HSP90 and luciferase in denaturation mixture were 0.375 μM and 0.125 μM respectively. A 5 μl sample of the denatured mix was diluted into 25 μl of renaturation buffer (25 mM Tris, pH7.5, 8 mM MgSO4, 0.01% bovine gamma globulin and 10% glycerol, 0.5 mM ATP, 2 mM DTT, 5 mM KCl, 0.3 μM HSP70 and 0.15 μM HSP40). The renaturation reaction was incubated at room temperature for 150 min, followed by dilution of 10 μl of the renatured sample into 90 μl of luciferin reagent (Luclite, PerkinElmer Life Science). The mixture was incubated at dark for 5 min before reading the luminescence signal on a TopCount plate reader (PerkinElmer Life Science).
(b) HSP90 Competition Binding (Fluorescence Polarization) Assay.
A fluorescein isothiocyanate (FITC) labeled GM was purchase from InvivoGen (ant-fgl-1). The interaction between HSP90 and labeled GM forms the basis for the fluorescence polarization assay. A free and fast-tumbling FITC labeled GM emits random light with respect to the plane of polarization plane of excited light, resulting in a lower polarization degree (mP) value. When GM is bound to HSP90, the complex tumble slower and the emitted light is polarized, resulting in a higher mP value. This competition binding assay was performed in 96-well plate and with each assay contained 10 and 50 nM of labeled GM and purified HSP90 protein (Assay Design, SPP-776F) respectively. The assay buffer contained 20 mM HEPES (pH 7.3), 50 mM KCl, 1 mM DTT, 50 mM MgCl2, 20 mM Na2MoO4, 0.01% NP40 with 0.1 mg/ml bovine gamma-globulin. Compounds are diluted in DMSO and added to the final assay before labeled GM with concentration range from 20 uM to 2 nM. mP value was determined by BioTek Synergy II with background subtraction after 24 hours of incubation at 4° C.

| IC50 [1] | IC50 (HSP90) | melting point | SMILES |
| --- | --- | --- | --- |
| 1000 to 10000 nM | ≤ 100 nM |  | CCNC(=O)c1noc(-c2cc(Cl)c(O)cc2O)c1-c1ccc(OCCCCC(=O)NO)cc1 [Compound 2, 5-(5-Chloro-2,4-dihydroxyphenyl)-N-ethyl-4-(4-(5-(hydroxyamino)-5-oxopentyloxy)phenyl)isoxazole-3-carboxamide] |
| 100 to 1000 nM | ≤ 100 nM |  | CCNC(=O)c1noc(-c2cc(Cl)c(O)cc2O)c1-c1ccc(OCCCCCC(=O)NO)cc1 [Compound 3, 5-(5-Chloro-2,4-dihydroxyphenyl)-N-ethyl-4-(4-(6-(hydroxyamino)-6-oxohexyloxy)phenyl)isoxazole-3-carboxamide] |
| 100 to 1000 nM | ≤ 100 nM |  | CCNC(=O)c1noc(-c2cc(Cl)c(O)cc2O)c1-c1ccc(OCCCCCCC(=O)NO)cc1 [Compound 4, 5-(5-chloro-2,4-dihydroxyphenyl)-N-ethyl-4-(4-(7-(hydroxylamino)-7-oxoheptyloxy)phenyl)isoxazole-3-carboxamide] |
| 1000 to 10000 nM | ≤ 100 nM |  | COc1ccc(-c2c(C(=O)NCCC(=O)NO)noc2-c2cc(Cl)c(O)cc2O)cc1 [Compound 5, 5-(5-chloro-2,4-dihydroxyphenyl)-N-(3-(hydroxyl-amino)-3-oxopropyl)-4-(4-methoxyphenyl)isoxazole-3-carboxamide] |
| 1000 to 10000 nM | ≤ 100 nM |  | COc1ccc(-c2c(C(=O)NCCCC(=O)NO)noc2-c2cc(Cl)c(O)cc2O)cc1 [Compound 6, 5-(5-chloro-2,4-dihydroxyphenyl)-N-(4-(hydroxyamino)-4-oxobutyl)-4-(4-methoxyphenyl)isoxazole-3-carboxamide] |
| 100 to 1000 nM | ≤ 100 nM |  | COc1ccc(-c2c(C(=O)NCCCCCC(=O)NO)noc2-c2cc(Cl)c(O)cc2O)cc1 [Compound 8, 5-(5-chloro-2,4-dihydroxyphenyl)-N-(6-(hydroxylamino)-6-oxohexyl)-4-(4-methoxyphenyl)isoxazole-3-carboxamide] |
| ≤ 100 nM | ≤ 100 nM |  | COc1ccc(-c2c(C(=O)NCCCCCCC(=O)NO)noc2-c2cc(Cl)c(O)cc2O)cc1 [Compound 9, 5-(5-chloro-2,4-dihydroxyphenyl)-N-(7-(hydroxylamino)-7-oxoheptyl)-4-(4-methoxyphenyl)isoxazole-3-carboxamide] |
| ≤ 100 nM | ≤ 100 nM |  | COc1ccc(-c2c(C(=O)NCCCCCCCC(=O)NO)noc2-c2cc(Cl)c(O)cc2O)cc1 [Compound 10, 5-(5-chloro-2,4-dihydroxyphenyl)-N-(8-(hydroxylamino)-8-oxooctyl)-4-(4-methoxyphenyl)isoxazole-3-carboxamide] |
| ≤ 100 nM | 100 to 1000 nM | 186 to 190 °C | COc1ccc(-c2c(C(=O)N3CCN(c4ncc(C(=O)NO)cn4)CC3)noc2-c2cc(Cl)c(O)cc2O)cc1 [Compound 11, 2-(4-(5-(5-chloro-2,4-dihydroxyphenyl)-4-(4-methoxyphenyl)isoxazole-3-carbonyl)piperazin-1-yl)-N-hydroxypyrimidine-5-carboxamide] |
| ≤ 100 nM | 100 to 1000 nM | 148 to 151 °C | COc1ccc(-c2c(C(=O)NCC3CCN(c4ncc(C(=O)NO)cn4)CC3)noc2-c2cc(Cl)c(O)cc2O)cc1 [Compound 13, 5-(5-Chloro-2,4-dihydroxyphenyl)-N-((1-(5-(hydroxycarbamoyl)pyrimidin-2-yl)piperidin-4-yl)methyl)-4-(4-methoxyphenyl)isoxazole-3-carboxamide] |
| 1000 to 10000 nM | ≤ 100 nM | 146 to 148 °C | CCNC(=O)c1noc(-c2cc(C(C)C)c(O)cc2O)c1-c1ccc(CNCCC(=O)NO)cc1 [Compound 15, 5-(2,4-dihydroxy-5-isopropylphenyl)-N-ethyl-4-(4-((3-(hydroxyamino)-3-oxopro-pylamino)methyl)phenyl)isoxazole-3-carboxamide] |
| ≥ 10000 nM | ≤ 100 nM | 120 to 122 °C | CCNC(=O)c1noc(-c2cc(C(C)C)c(O)cc2O)c1-c1ccc(CN(C)CCC(=O)NO)cc1 [Compound 16, 5-(2,4-dihydroxy-5-isopropylphenyl)-N-ethyl-4-(4-(((3-(hydroxyamino)-3-oxopropyl)(methyl)amino)methyl)phenyl)isoxazole-3-carboxamide] |
| ≥ 10000 nM | ≤ 100 nM | 132 to 134 °C | CCNC(=O)c1noc(-c2cc(C(C)C)c(O)cc2O)c1-c1ccc(CN(C)CCCC(=O)NO)cc1 [Compound 18, 5-(2,4-dihydroxy-5-isopropylphenyl)-N-ethyl-4-(4-(((4-(hydroxyamino)-4-oxobutyl)(methyl)amino)methyl)phenyl)isoxazole-3-carboxamide] |
| 1000 to 10000 nM | ≤ 100 nM | 134 to 135 °C | CCNC(=O)c1noc(-c2cc(C(C)C)c(O)cc2O)c1-c1ccc(CNCCCCCC(=O)NO)cc1 [Compound 21, 5-(2,4-Dihydroxy-5-isopropylphenyl)-N-ethyl-4-(4-((6-(hydroxyamino)-6-oxohexylamino)methyl)phenyl)isoxazole-3-carboxamide] |
| 1000 to 10000 nM | ≤ 100 nM | 113 to 115 °C | CCNC(=O)c1noc(-c2cc(C(C)C)c(O)cc2O)c1-c1ccc(CN(C)CCCCCC(=O)NO)cc1 [Compound 22, 5-(2,4-Dihydroxy-5-isopropylphenyl)-N-ethyl-4-(4-(((6-(hydroxyamino)-6-oxohexyl)(methyl)amino)methyl)phenyl)isoxazole-3-carboxamide] |
| 100 to 1000 nM | ≤ 100 nM | 126 to 128 °C | CCNC(=O)c1noc(-c2cc(C(C)C)c(O)cc2O)c1-c1ccc(CNCCCCCCC(=O)NO)cc1 [Compound 23, 5-(2,4-dihydroxy-5-isopropylphenyl)-N-ethyl-4-(4-((7-(hydroxyamino)-7-oxoheptylamino)methyl)phenyl)isoxazole-3-carboxamide] |
| 100 to 1000 nM | ≤ 100 nM | 118 to 119 °C | CCNC(=O)c1noc(-c2cc(C(C)C)c(O)cc2O)c1-c1ccc(CN(C)CCCCCCC(=O)NO)cc1 [Compound 24, 5-(2,4-Dihydroxy-5-isopropylphenyl)-N-ethyl-4-(4-(((7-(hydroxyamino)-7-oxoheptyl)(methyl)amino)methyl)phenyl)isoxazole-3-carboxamide] |
|  | ≤ 100 nM | 129 to 130 °C | CC(C)c1cc(-c2onc(C(=O)NCCCC(=O)NO)c2-c2ccc(CN3CCOCC3)cc2)c(O)cc1O [Compound 25, 5-(2,4-Dihydroxy-5-isopropylphenyl)-N-(4-(hydroxyamino)-4-oxobutyl)-4-(4-(morpholinomethyl)phenyl)isoxazole-3-carboxamide] |

| SMILES | IC50 [1] | IC50 (HSP90) | melting point |
| --- | --- | --- | --- |
| CCNC(=O)c1noc(-c2cc(Cl)c(O)cc2O)c1-c1ccc(OCCCC(=O)NO)cc1 [Compound 1, 5-(5-chloro-2,4-dihydroxyphenyl)-N-ethyl-4-(4-(4-(hydroxyamino)-4-oxobutoxy)phenyl)isoxazole-3-carboxamide] | 100 to 1000 nM | ≤ 100 nM |  |
